Assay results reported in paper PMC4657531 (EXCLI Journal, 2013).

Test system: β-glucosidase
Assay: DNS reducing sugar assay, Lineweaver-Burk plot
Format: biochemical, Penicillium simplicissimum
Conditions: citrate buffer pH 4.8, 50 °C, 30 min; salicin 5-50 mg/ml

## OCc1ccccc1O[C@@H]1O[C@H](CO)[C@@H](O)[C@H](O)[C@H]1O [salicin]
  Km: 14.881 mg/mL
